In ChEMBL document CHEMBL4002549, “Synthesis and evaluation of halogenated 12N-sulfonyl matrinic butanes as potential anti-coxsackievirus agents” (Eur J Med Chem, 2017):
pIC50: −log10 of the molar value.

Columns and labels:
[1] = Cytotoxicity against African green monkey Vero cells assessed as cytopathic effect after 48 hrs; format: cell-based; details: chlorocebus sabaeus, read-out: TC50
Coxsackievirus B3 = experiment: Antiviral activity against Coxsackievirus B3 Nancy infected in African green monkey Vero cells assessed as inhibition of virus-induced cytopathic effect; format: functional; details: Enterovirus B
[2] = Selectivity index, ratio of TC50 for African green monkey Vero cells to IC50 for Coxsackievirus B3 Nancy infected in African green monkey Vero cells; format: toxicity; details: read-out: Selectivity Index
[3] = Acute toxicity in po dosed Kunming mouse measured for 7 days; format: organism-based; details: in vivo
Coxsackievirus B1 = experiment: Antiviral activity against Coxsackievirus B1 Conn 5 infected in African green monkey Vero cells assessed as inhibition of virus-induced cytopathic effect; format: functional; details: Enterovirus B, Conn 5, Vero
[4] = Antiviral activity against Coxsackievirus B2 Ohio-1 infected in African green monkey Vero cells assessed as inhibition of virus-induced cytopathic effect; format: functional, Coxsackievirus B2 (strain Ohio-1); details: Enterovirus B
Coxsackievirus B4 = experiment: Antiviral activity against Coxsackievirus B4 JVB infected in African green monkey Vero cells assessed as inhibition of virus-induced cytopathic effect; format: functional; details: Enterovirus B
Coxsackievirus B5 = experiment: Antiviral activity against Coxsackievirus B5 Faulkner infected in African green monkey Vero cells assessed as inhibition of virus-induced cytopathic effect; format: functional; details: Enterovirus B
[5] = Antiviral activity against Coxsackievirus B6 Schmitt infected in African green monkey Vero cells assessed as inhibition of virus-induced cytopathic effect; format: functional, Coxsackievirus B6 (strain Schmitt); details: Enterovirus B
[6] = Selectivity index, ratio of TC50 for African green monkey Vero cells to IC50 for Coxsackievirus B1 Conn 5 infected in African green monkey Vero cells; format: toxicity; details: read-out: Selectivity Index
[7] = Selectivity index, ratio of TC50 for African green monkey Vero cells to IC50 for Coxsackievirus B2 Ohio-1 infected in African green monkey Vero cells; format: toxicity; details: read-out: Selectivity Index
[8] = Selectivity index, ratio of TC50 for African green monkey Vero cells to IC50 for Coxsackievirus B4 JVB infected in African green monkey Vero cells; format: toxicity; details: read-out: Selectivity Index
[9] = Selectivity index, ratio of TC50 for African green monkey Vero cells to IC50 for Coxsackievirus B5 Faulkner infected in African green monkey Vero cells; format: toxicity; details: read-out: Selectivity Index
[10] = Selectivity index, ratio of TC50 for African green monkey Vero cells to IC50 for Coxsackievirus B6 Schmitt infected in African green monkey Vero cells; format: toxicity; details: read-out: Selectivity Index
[11] = Tmax in Sprague-Dawley rat at 25 mg/kg, po; format: ADME, organism-based; details: in vivo
[12] = Cmax in Sprague-Dawley rat at 25 mg/kg, po; format: ADME, organism-based; set-up: dose 25 mg/kg, route oral; details: in vivo
[13] = AUC (0 to t) in Sprague-Dawley rat at 25 mg/kg, po; format: ADME, organism-based; details: in vivo
[14] = AUC (0 to infinity) in Sprague-Dawley rat at 25 mg/kg, po; format: ADME, organism-based; set-up: dose 25 mg/kg, route oral, time infinity; details: in vivo
[15] = MRT in Sprague-Dawley rat at 25 mg/kg, po; format: ADME, organism-based; details: in vivo
[16] = Half life in Sprague-Dawley rat at 25 mg/kg, po; format: ADME, organism-based; details: in vivo

SMILES	CC50 at 48 h [1] [µM]	pIC50 (Coxsackievirus B3)	selectivity ratio [2]	other results
O=S(=O)(c1ccc(C(F)(F)F)cc1)N1C[C@@H]2CCCN3CCC[C@@H]([C@H]23)[C@H]1CCCCF	144	5.92	121	–
N#Cc1cccc(S(=O)(=O)N2C[C@@H]3CCCN4CCC[C@@H]([C@H]34)[C@H]2CCF)c1	> 512	4.13	> 6.84	–
CCCC[C@@H]1[C@H]2CCCN3CCC[C@@H](CN1S(=O)(=O)c1cccc(C#N)c1)[C@@H]23	96.2	5.94	84.3	–
C1CCN2C[C@@H]3CCCN4CCC[C@@H]([C@H]34)[C@H]2C1	652	4.24	11.4	–
N#Cc1ccc(S(=O)(=O)N2C[C@@H]3CCCN4CCC[C@@H]([C@H]34)[C@H]2CCCCF)cc1	276	5.12	36.7	LD50 at 168 h [3]: 353 mg/kg
O=S(=O)(c1cccc(C(F)(F)F)c1)N1C[C@@H]2CCCN3CCC[C@@H]([C@H]23)[C@H]1CCCCF	100	6.09	122	–
CCCC[C@@H]1[C@H]2CCCN3CCC[C@@H](CN1S(=O)(=O)c1cccc(C(=O)OC)c1)[C@@H]23	73.7	5.84	50.9	–
N#Cc1cccc(S(=O)(=O)N2C[C@@H]3CCCN4CCC[C@@H]([C@H]34)[C@H]2CCCCCl)c1	204	5.08	24.3	–
CCCC[C@@H]1[C@H]2CCCN3CCC[C@@H](CN1S(=O)(=O)c1ccccc1C(=O)OC)[C@@H]23	320	5.14	44.1	–
CCCC[C@@H]1[C@H]2CCCN3CCC[C@@H](CN1S(=O)(=O)c1ccc(N)cc1)[C@@H]23	82.9	4.64	3.6	–
N#Cc1ccccc1S(=O)(=O)N1C[C@@H]2CCCN3CCC[C@@H]([C@H]23)[C@H]1CCCl	> 452	5.73	> 244	LD50 at 168 h [3]: 348 mg/kg
CCCC[C@@H]1[C@H]2CCCN3CCC[C@@H](CN1S(=O)(=O)c1ccc(OC)cc1)[C@@H]23	96.2	5.24	16.6	–
NC(=O)c1ncn([C@@H]2O[C@H](CO)[C@@H](O)[C@H]2O)n1 [RIBAVIRIN]	6360 to 8200	3.16 to 3.42	11.8 to 16.8	pIC50 (Coxsackievirus B1): 2.62; pIC50 [4]: < 3.30; pIC50 (Coxsackievirus B4): < 3.30; pIC50 (Coxsackievirus B5): 2.48; pIC50 [5]: 2.68
CCCC[C@@H]1[C@H]2CCCN3CCC[C@@H](CN1S(=O)(=O)c1ccc(C(=O)OC)cc1)[C@@H]23	367	4.85	25.1	–
CCCC[C@@H]1[C@H]2CCCN3CCC[C@@H](CN1S(=O)(=O)c1ccc(NC(C)=O)cc1)[C@@H]23	96.2	5.61	38.9	–
O=S(=O)(c1ccccc1C(F)(F)F)N1C[C@@H]2CCCN3CCC[C@@H]([C@H]23)[C@H]1CCCCF	229	4.77	13.6	–
CC(=O)c1ccc(S(=O)(=O)N2C[C@@H]3CCCN4CCC[C@@H]([C@H]34)[C@H]2CCCl)cc1	251	4.91	20.5	–
N#Cc1cccc(S(=O)(=O)N2C[C@@H]3CCCN4CCC[C@@H]([C@H]34)[C@H]2CCCCF)c1	276	5.35	61.4	LD50 at 168 h [3]: 654 mg/kg
O=S(=O)(c1ccccc1/C=N/O)N1C[C@@H]2CCCN3CCC[C@@H]([C@H]23)[C@H]1CCO	> 491	6.06	> 565	LD50 at 168 h [3]: < 500 mg/kg
N#Cc1ccccc1S(=O)(=O)N1C[C@@H]2CCCN3CCC[C@@H]([C@H]23)[C@H]1CCCCCl	204	5.40	51.2	LD50 at 168 h [3]: 348 mg/kg
O=S(=O)(c1ccc(C(F)(F)F)cc1)N1C[C@@H]2CCCN3CCC[C@@H]([C@H]23)[C@H]1CCF	358	4.89	27.6	–
CCCC[C@@H]1[C@H]2CCCN3CCC[C@@H](CN1S(=O)(=O)c1ccccc1[N+](=O)[O-])[C@@H]23	228	5.61	92.5	–
N#Cc1ccccc1S(=O)(=O)N1C[C@@H]2CCCN3CCC[C@@H]([C@H]23)[C@H]1CCCCF	230	4.75	13	LD50 at 168 h [3]: 560 mg/kg
NC(=O)c1cccc(S(=O)(=O)N2C[C@@H]3CCCN4CCC[C@@H]([C@H]34)[C@H]2CCO)c1	> 491	5.03	> 53.1	–
NC(=O)c1ccc(S(=O)(=O)N2C[C@@H]3CCCN4CCC[C@@H]([C@H]34)[C@H]2CCO)cc1	> 491	4.80	> 30.7	–
CCCC[C@@H]1[C@H]2CCCN3CCC[C@@H](CN1S(=O)(=O)c1ccccc1C#N)[C@@H]23	116 to 200	5.98	111	LD50 at 168 h [3]: > 500 mg/kg; pIC50 (Coxsackievirus B1): 5.82; pIC50 [4]: 5.78; pIC50 (Coxsackievirus B4): 5.29; pIC50 (Coxsackievirus B5): 6.16; pIC50 [5]: 5.69; selectivity ratio [6]: > 132; selectivity ratio [7]: > 121; selectivity ratio [8]: > 38.9; selectivity ratio [9]: > 290; selectivity ratio [10]: 75.3; Tmax [11]: 1.33 h; Cmax [12]: 3.07 µM; AUC(0-t) [13]: 30.9 µM·h; AUC(0-inf) [14]: 31.8 µM·h; MRT [15]: 4.05 h; half-life [16]: 2.48 h
N#Cc1cccc(S(=O)(=O)N2C[C@@H]3CCCN4CCC[C@@H]([C@H]34)[C@H]2CCCl)c1	313	5.49	97	LD50 at 168 h [3]: 348 mg/kg
